Reference: the supplement of paper PMC13380429

Experiments:
Details in all cases: 72 h
HepG2 [1] = test: cell viability relative to DMSO; higher = less toxic
Vero E6 [2] = test: as above
Calu-3 [3] = test: as above
Caco-2 [4] = test: as above
U2OS [5] = test: as above
HepG2 [6] = test: relative viability EC50 (midpoint between 100% and the lowest measured viability); higher = less toxic
Vero E6 [7] = test: as above
Calu-3 [8] = test: as above
Caco-2 [9] = test: as above
U2OS [10] = test: as above
HepG2 [11] = test: drug sensitivity score (DSS) for viability; higher = more toxic; extreme values may be limits of the assay
Vero E6 [12] = test: as above
Calu-3 [13] = test: as above
Caco-2 [14] = test: as above
U2OS [15] = test: as above

Compound | cell viability (HepG2 [1]; 1 nM) [%] | cell viability (HepG2 [1]; 10 nM) [%] | cell viability (HepG2 [1]; 100 nM) [%] | cell viability (HepG2 [1]; 1000 nM) [%] | cell viability (HepG2 [1]; 10000 nM) [%] | cell viability (Vero E6 [2]; 1 nM) [%] | cell viability (Vero E6 [2]; 10 nM) [%] | cell viability (Vero E6 [2]; 100 nM) [%] | cell viability (Vero E6 [2]; 1000 nM) [%] | cell viability (Vero E6 [2]; 10000 nM) [%] | cell viability (Calu-3 [3]; 1 nM) [%] | cell viability (Calu-3 [3]; 10 nM) [%] | cell viability (Calu-3 [3]; 100 nM) [%] | cell viability (Calu-3 [3]; 1000 nM) [%] | cell viability (Calu-3 [3]; 10000 nM) [%] | cell viability (Caco-2 [4]; 1 nM) [%] | cell viability (Caco-2 [4]; 10 nM) [%] | cell viability (Caco-2 [4]; 100 nM) [%] | cell viability (Caco-2 [4]; 1000 nM) [%] | cell viability (Caco-2 [4]; 10000 nM) [%] | cell viability (U2OS [5]; 1 nM) [%] | cell viability (U2OS [5]; 10 nM) [%] | cell viability (U2OS [5]; 100 nM) [%] | cell viability (U2OS [5]; 1000 nM) [%] | cell viability (U2OS [5]; 10000 nM) [%] | relative viability EC50 (HepG2 [6]) [µM] | relative viability EC50 (Vero E6 [7]) [µM] | relative viability EC50 (Calu-3 [8]) [µM] | relative viability EC50 (Caco-2 [9]) [µM] | relative viability EC50 (U2OS [10]) [µM] | drug sensitivity score (HepG2 [11]) | drug sensitivity score (Vero E6 [12]) | drug sensitivity score (Calu-3 [13]) | drug sensitivity score (Caco-2 [14]) | drug sensitivity score (U2OS [15])
O=S(=O)(O)c1ccc(-c2c3nc(c(-c4ccc(S(=O)(=O)O)cc4)c4ccc([nH]4)c(-c4ccc(S(=O)(=O)O)cc4)c4nc(c(-c5ccc(S(=O)(=O)O)cc5)c5ccc2[nH]5)C=C4)C=C3)cc1 [TPPS4] | 100 | 102 | 104 | 107 | 80.5 | 110 | 102 | 93.6 | 95.7 | 81.9 | 94.2 | 93.1 | 109 | 99 | 90.1 | 107 | 87.2 | 91.4 | 96.4 | 101 | 101 | 94.2 | 105 | 105 | 91.6 | > 10 | > 10 | > 10 | > 10 | > 10 | 0.3 | 0.7 | 0 | 0 | 0
Cc1ccsc1C(=CCCN1CCC[C@@H](C(=O)O)C1)c1sccc1C [tiagabine] | 96 | 103 | 97.3 | 103 | 98.6 | 98.2 | 100 | 92.4 | 104 | 106 | 117 | 103 | 99.8 | 98.1 | 100 | 93.5 | 97.9 | 102 | 92.3 | 106 | 101 | 94.2 | 101 | 98 | 94.2 | > 10 | > 10 | > 10 | > 10 | > 10 | 0 | 0 | 0 | 0 | 0
CC(CN(C)C)C(C)(O)Cc1ccc(Cl)cc1 (stereo not given) [clobutinol] | 111 | 95.5 | 105 | 97.6 | 88.4 | 101 | 98.6 | 102 | 89.6 | 93.2 | 98.7 | 106 | 106 | 104 | 98.1 | 99.1 | 118 | 100 | 108 | 97.4 | 97.3 | 97.4 | 97.7 | 96.5 | 96.9 | > 10 | > 10 | > 10 | > 10 | > 10 | 0.1 | 0.1 | 0 | 0 | 0
Cc1cccc(C)c1NC(=O)CN1CCCCCC1 [pincainide] | 99.2 | 106 | 118 | 104 | 106 | 98.7 | 87.8 | 95.7 | 89.2 | 107 | 95.1 | 96 | 99 | 98.7 | 97.5 | 94.3 | 102 | 94.1 | 110 | 82 | 97.7 | 103 | 98 | 101 | 101 | > 10 | > 10 | > 10 | > 10 | > 10 | 0 | 0 | 0 | 0.2 | 0
COc1ccccc1N1CCN(CCCNc2cc(=O)n(C)c(=O)n2C)CC1 [urapidil] | 105 | 90.1 | 107 | 95.8 | 95 | 100 | 100 | 98.8 | 98.6 | 102 | 96.7 | 98.5 | 96.4 | 102 | 107 | 92.1 | 96.4 | 97.9 | 101 | 104 | 91.1 | 97.5 | 95.2 | 101 | 103 | > 10 | > 10 | > 10 | > 10 | > 10 | 0 | 0 | 0 | 0 | 0
CC(=O)Oc1ccccc1C(=O)Oc1ccccc1C(=O)O [acetylsalicylsalicylic-acid] | 100 | 106 | 100 | 108 | 92.4 | 101 | 101 | 102 | 95.9 | 99.9 | 95.3 | 78.8 | 99.3 | 97 | 91.9 | 103 | 96.1 | 101 | 101 | 103 | 96.1 | 96.8 | 103 | 104 | 106 | > 10 | > 10 | > 10 | > 10 | > 10 | 0 | 0 | 0 | 0 | 0
NC(=O)c1ncn([C@@H]2O[C@H](CO)[C@@H](O)[C@H]2O)n1 [ribavirin] | 95.7 | 104 | 99.8 | 121 | 86.7 | 101 | 101 | 98.5 | 104 | 104 | 104 | 108 | 111 | 88.6 | 92.9 | 109 | 97.6 | 108 | 113 | 82.9 | 92 | 93.8 | 99.5 | 95.9 | 113 | > 10 | > 10 | > 10 | > 10 | > 10 | 0 | 0 | 0.3 | 0.2 | 0
